Target: Serine/threonine-protein kinase B-raf [V600E] (Homo sapiens, UniProt P15056, V600E)
Test: BRAF V600E Enzyme Assay
Procedure: A competitive displacement assay was configured for B-Raf that monitors the amount of a fluorescently-tagged “tracer” bound to B-Raf via TR-FRET from an anti-tag Eu-labeled antibody also bound to B-Raf. For full-length FLAG-tagged B-Raf(V600E), the assay mixtures consisted of 25 mM K+HEPES, pH 7.4, 10 mM MgCl2, 0.01% Triton X-100, 1 mM DTT, 2% DMSO (from compound), 50 nM Tracer 1710 (ThermoFisher, PR9176A), 0.5 nM Eu anti-FLAG (M2)-cryptate Ab (Cisbio, 61FG2KLB) and 5 nM full-length, N-terminally FLAG-tagged B-Raf(V600E) (Origene Technologies, TP700031. Compounds were typically diluted in DMSO across an 11-point dosing range created using a 3-fold serial dilution protocol at a top dose of 10 μM. The assay was run in 384-well, polystyrene, low-volume, non-treated, white microtiter plates (Costar 4512) in a final volume of 12 μL. Low control wells included 1 μM of a potent B-Raf inhibitor as a control. The assays were incubated at ambient temperature (typically 22° C.) for 60 min and then read on a PerkinElmer EnVision microplate reader using standard TRF settings (λEx=320 nm, λEm=615 & 665 nm).

Serine/threonine-protein kinase B-raf [V600E], sequence (P15056 2-766 V600E limits assumed): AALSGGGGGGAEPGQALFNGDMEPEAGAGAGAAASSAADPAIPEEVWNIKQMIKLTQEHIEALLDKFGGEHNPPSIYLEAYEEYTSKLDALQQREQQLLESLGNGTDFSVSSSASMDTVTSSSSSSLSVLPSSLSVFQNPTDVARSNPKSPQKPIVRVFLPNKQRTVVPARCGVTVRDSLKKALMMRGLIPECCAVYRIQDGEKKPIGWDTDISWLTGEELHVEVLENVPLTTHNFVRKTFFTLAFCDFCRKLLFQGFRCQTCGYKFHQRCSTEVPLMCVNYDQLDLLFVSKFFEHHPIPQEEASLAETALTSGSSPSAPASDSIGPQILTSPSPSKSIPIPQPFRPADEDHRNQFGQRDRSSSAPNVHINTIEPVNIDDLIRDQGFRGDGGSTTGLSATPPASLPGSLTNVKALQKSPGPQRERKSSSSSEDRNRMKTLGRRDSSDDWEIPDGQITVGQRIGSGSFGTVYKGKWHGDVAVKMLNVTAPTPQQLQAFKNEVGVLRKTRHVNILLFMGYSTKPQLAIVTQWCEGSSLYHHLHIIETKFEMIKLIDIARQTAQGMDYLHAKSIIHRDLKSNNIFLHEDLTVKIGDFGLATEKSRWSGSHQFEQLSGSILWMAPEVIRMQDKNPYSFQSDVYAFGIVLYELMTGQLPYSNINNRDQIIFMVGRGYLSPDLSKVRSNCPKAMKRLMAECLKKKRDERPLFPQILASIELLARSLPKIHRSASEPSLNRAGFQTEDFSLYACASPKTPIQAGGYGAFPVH

Compound	IC50
Cn1cnc2ccc(Nc3c(F)ccc(NS(=O)(=O)N4CC(OC(F)F)C4)c3Cl)c(Cl)c2c1=O [US12303509, Example 143]	8 nM
Cc1c(Nc2c(F)ccc(NS(=O)(=O)N3CC(C)(F)C3)c2Cl)ccc2ncn(C)c(=O)c12 [US12303509, Example 155]	7 nM
Cc1c(Nc2c(F)ccc(NS(=O)(=O)N3CC4(CCC4)C3)c2Cl)ccc2ncn(C)c(=O)c12 [US12303509, Example 157]	29 nM

From BindingDB's records for patent US12303509 (Pfizer, 2025)
